Experimental data taken from US20210386367A1, “DEVICES AND SYSTEMS FOR GASTROINTESTINAL MICROBIOME DETECTION AND MANIPULATION” (Progenity, Inc., priority 2018, published 2021).
≈ marks a conversion by molar mass, not a printed value. Entries after “also recorded” stand apart in the source; their conditions may differ. Like-named read-outs stand apart in the source and are kept apart here.

Assays:
[1] = system: E. coli, Streptococcus spp., and Bacteroides spp. isolates; assay type: cell-based
Description: Initial values of the MIC were determined by agar dilution in accordance with guidelines from the Clinical and Laboratory Standards Institute (CLSI; (1) “Methods for Dilution Antimicrobial Susceptibility Tests for Bacteria That Grow Aerobically; Approved Standard; 11th ed.,” CLSI standard M07, 2018; (2) “Methods for Antimicrobial Susceptibility Testing of Anaerobic Bacteria; Approved Standard—Eighth Edition,” CLSI document M11-A8, 2012.).
If there were no colonies on the antibiotic selection plates, the spontaneous mutation frequency was reported as less than the frequency observed with one colony to indicate that the spontaneous mutation frequency was less than the limit of detection (one CFU). […] The mutation prevention concentration (MPC) was reported as the lowest concentration for which no mutants were selected.

Escherichia coli = assay: Broth microdilution MIC, 50 clinical isolates (incl. ESBL, one NDM-1); assay type: cell-based
Description: (§1) Minimal inhibitory concentration (MIC) values were determined by broth microdilution or agar dilution in accordance with guidelines from the Clinical and Laboratory Standards Institute (CLSI; (1) “Methods for Dilution Antimicrobial Susceptibility Tests for Bacteria That Grow Aerobically; Approved Standard; 11th ed.” CLSI standard M07-A11, 2018; (2) “Performance Standards for Antimicrobial Susceptibility Testing; Twenty-Eighth Informational Supplement,” CLSI document M100-S28, 2018; and (3) “Methods for Antimicrobial Susceptibility Testing of Anaerobic Bacteria; Approved Standard—Eighth Edition,” CLSI document M11-A8, 2012).
(§2) Tested aerobically by broth microdilution: • Escherichia coli, n=50 • Klebsiella spp., n=50 • Pseudomonas aeruginosa, n=50 • Streptococcus spp., n=50 • Staphylococcus aureus, n=50 • Enterococcus faecalis, n=50 • Enterobacter aerogenes, n=50 • Proteus mirabilis, n=50
(§3) Broth microdilution testing of aerobic bacteria was conducted in cation-adjusted Mueller Hinton broth (MHBII). For testing streptococci, lysed horse blood (LHB) was added to MHBII broth at a final concentration of 3%. Where LHB was used, it was added after filtering.
(§4) Broth microdilution susceptibility testing in 96-well microplates was conducted in accordance with CLSI methods (1) and (2). Automated liquid handlers were used to conduct serial dilutions and liquid transfers, including the Multidrop 384 (Labsystems, Helsinki, Finland), Biomek 2000, and the Biomek FX (Beckman Coulter, Fullerton, Calif.). All wells in columns 2 through 12 of a standard 96-well microdilution plate (Costar 3795) were filled with 150 μL of the appropriate diluent. Then, 300 μL of the test agents were added to the wells of column 1 of the plates at 100× the highest final concentration to be tested. Serial two-fold dilutions were made across the rows through column 11 using the Biomek 2000. The wells of column 12 contained no drug and served as the growth control wells. This plate served as the “mother plate” from which MIC assay plates or “daughter plates” were made.
(§5) The daughter plates were loaded with 190 μL per well of the appropriate medium using the Multidrop 384. The daughter plates were created using the Biomek FX which transferred 2 μL of drug solution from each well of a mother plate to each corresponding well of the daughter plate in a single step. A standardized inoculum of each test organism was prepared per CLSI methods (1) to equal a 0.5 McFarland standard, followed by a dilution of 1:20 for aerobes and 1:10 for anaerobes. The plates were then inoculated with 10 μL of the diluted inoculum using the Biomek 2000 from low to high drug concentration, resulting in a final concentration of approximately 5×10^5 CFU/mL per well. An un-inoculated plate was incubated in parallel for each medium for the purpose of assessing solubility of the drug in the test media.
(§6) Inoculated plates were stacked 3 or 4 high, covered with a sterile lid on the top plate, placed into boxes with CO2 planchets (streptococci) or plastic bags (all other isolates). Plates were incubated at 35° C. for 16-24 hr in ambient air for aerobes or for 42-48 hr in the anaerobic environment of the Bactron II anaerobe chamber (Sheldon Manufacturing Co.; Cornelius, Oreg.). Following incubation, the microplates were removed from the incubator and viewed from the bottom using a plate viewer. The MIC values were read and recorded as the lowest concentration of drug that inhibited visible growth of the organism as per CLSI methods (1) and (2).

B. vulgatus ATCC 8482 = assay: Time-kill assay; assay type: cell-based, Bacteroides vulgatus; details: 2×, 4×, 8× MIC; 2, 6, 24, 48 hr
E. coli MMX 1312 = assay: Broth microdilution MIC (time-kill study); assay type: cell-based, Escherichia coli
Klebsiella spp. = assay: Broth microdilution MIC, 50 clinical isolates (20 K. oxytoca, 30 K. pneumoniae); assay type: cell-based
Description: as §1, §2, §3, §4, §5, §6

Bacteroides non fragilis = assay: Agar dilution MIC, 29 clinical isolates; assay type: cell-based, Bacteroides spp.
[2] = system: E. coli ATCC 35218 (TEM-1 β-lactamase producer); assay: Broth microdilution MIC (time-kill study); assay type: cell-based, Escherichia coli
[3] = 29 Bacteroides non-fragilis clinical isolates

In the case of `C[C@@H](O)[C@H]1C(=O)N2C(C(=O)O)=C(S[C@@H]3CN[C@H](C(=O)N(C)C)C3)[C@H](C)[C@H]12` [meropenem], the “propensity for spontaneous resistance” value ([1]; SIBO pathogens in vitro) is reported as “little propensity for resistance to develop spontaneously”, the MPC values ([1]; across the evaluated isolates) is reported as “equivalent to 4× the MIC” and the “% R” value (Escherichia coli) is reported as 2%. For the same molecule, the “% S” value (Escherichia coli) was “Ninety-eight”, the Mode (Escherichia coli) was 0.015 µg/mL and the “relative activity among drugs tested” value (Escherichia coli) was “most active drug tested; also recorded: most active agent”. The “Cumulative percentage of isolates inhibited at MIC” value (Escherichia coli; 0.015 μg/mL) was 78.0%, the “Number of test isolates at MIC” value (Escherichia coli; 0.015 μg/mL) was 21 and the “Cumulative percentage of isolates inhibited at MIC” value (Escherichia coli; 0.03 μg/mL) was 90.0%. The “Number of test isolates at MIC” value (Escherichia coli; 0.03 μg/mL) was 6, the “Cumulative percentage of isolates inhibited at MIC” value (Escherichia coli; 0.06 μg/mL) was 92.0% and the “Number of test isolates at MIC” value (Escherichia coli; 0.06 μg/mL) was 1. The “Cumulative percentage of isolates inhibited at MIC” value (Escherichia coli; >8 μg/mL) was 100.0%, the “Number of test isolates at MIC” value (Escherichia coli; >8 μg/mL) was 1 and the MIC50 (Escherichia coli; Escherichia coli, read-out: MIC50) was 0.015 µg/mL (≈ 0.0391 µM). The MIC90 (Escherichia coli; Escherichia coli, read-out: MIC90) was 0.03 µg/mL (≈ 0.0782 µM), the “Cumulative percentage of isolates inhibited at MIC” value (Escherichia coli; […]) was 98.0% and the “Number of test isolates at MIC” value (Escherichia coli; […]) was 3. The “% R” value (Escherichia coli; listed as MEM) was 2%, the “% S” value (Escherichia coli; listed as MEM) was 98% and the “Cumulative percentage of isolates inhibited at MIC” value (Escherichia coli; ≤0.008 μg/mL) was 36.0%. The “Number of test isolates at MIC” value (Escherichia coli; ≤0.008 μg/mL) was 18, the “time-kill kinetics outcome (bactericidal = ≥3 log reduction in CFU per mL)” value (B. vulgatus ATCC 8482) was “bactericidal effect at 24 and 48 hr at 4× and 8×MIC” and the MIC (E. coli MMX 1312; E. coli MMX 1312) was 0.008 µg/mL (≈ 0.0209 µM). For the same molecule, the MIC (E. coli MMX 1312; Escherichia coli, MMX1312, broth microdilution, read-out: MIC) was 0.008 µg/mL (≈ 0.0209 µM), the “% R” value (Klebsiella spp.) was “Sixteen” and the “% S” value (Klebsiella spp.) was 84%. For the same molecule, the Mode (Klebsiella spp.) was 0.015 µg/mL, the “relative activity among drugs tested” value (Klebsiella spp.) was “most active drug evaluated; also recorded: MIC50 value for meropenem was the lowest” and the “Cumulative percentage of isolates at MIC” value (Klebsiella spp.; 0.015 μg/mL) was 58.0%. For the same molecule, the “Number of test isolates at MIC” value (Klebsiella spp.; 0.015 μg/mL) was 27, the “Cumulative percentage of isolates at MIC” value (Klebsiella spp.; 0.03 μg/mL) was 80.0% and the “Number of test isolates at MIC” value (Klebsiella spp.; 0.03 μg/mL) was 11. The “Cumulative percentage of isolates at MIC” value (Klebsiella spp.; 0.06 μg/mL) was 82.0%, the “Number of test isolates at MIC” value (Klebsiella spp.; 0.06 μg/mL) was 1 and the “Cumulative percentage of isolates at MIC” value (Klebsiella spp.; 0.5 μg/mL) was 84.0%. The “Number of test isolates at MIC” value (Klebsiella spp.; 0.5 μg/mL) was 1, the “Cumulative percentage of isolates at MIC” value (Klebsiella spp.; 8 μg/mL) was 88.0% and the “Number of test isolates at MIC” value (Klebsiella spp.; 8 μg/mL) was 2. For the same molecule, the “Cumulative percentage of isolates at MIC” value (Klebsiella spp.; >8 μg/mL) was 100.0%, the “Number of test isolates at MIC” value (Klebsiella spp.; >8 μg/mL) was 6 and the MIC50 (Klebsiella spp.; Klebsiella, read-out: MIC50) was 0.015 µg/mL (≈ 0.0391 µM). For the same molecule, the MIC90 (Klebsiella spp.; Klebsiella, read-out: MIC90) was greater than 8 µg/mL, the “% R” value (Klebsiella spp.; listed as MEM) was 16% and the MIC90 (Klebsiella spp.; listed as MEM) was greater than 8 µg/mL. For the same molecule, the “Cumulative percentage of isolates at MIC” value (Klebsiella spp.; ≤0.008 μg/mL) was 4.0%, the “Number of test isolates at MIC” value (Klebsiella spp.; ≤0.008 μg/mL) was 2 and the “isolates with intermediate resistance” value (Bacteroides non fragilis) was “Three”. The “% I” value (Bacteroides non fragilis; [3]) was 3%, the “% S” value (Bacteroides non fragilis; [3]) was 97% and the MIC50 (Bacteroides non fragilis; [3]) was 0.5 µg/mL (≈ 1.3 µM). It also gave an MIC90 (Bacteroides non fragilis; [3]) of 2 µg/mL (≈ 5.22 µM), an MIC50 (Bacteroides non fragilis; Bacteroides, read-out: MIC50) of 0.5 µg/mL (≈ 1.3 µM) and an MIC90 (Bacteroides non fragilis; Bacteroides, read-out: MIC90) of 2 µg/mL (≈ 5.22 µM). For the same molecule, the Mode (Bacteroides non fragilis; modal MIC, 29 Bacteroides non-fragilis clinical isolates) was 0.5 µg/mL, the MIC ([2]; E. coli ATCC 35218) was 0.015 µg/mL (≈ 0.0391 µM) and the MIC ([2]; Escherichia coli, ATCC35218) was 0.015 µg/mL (≈ 0.0391 µM).
